Among the data in ChEMBL document CHEMBL5357062, “Emopamil-Binding Protein Inhibitors for Treating Multiple Sclerosis” (ACS Med Chem Lett, 2024) are IC50 values, retold here.

The experiment addresses 3-beta-hydroxysteroid-Delta(8),Delta(7)-isomerase (Homo sapiens, UniProt Q15125). Nature of the experiment: Inhibition of EBP in HEK293T cells using zymosterol-d5 as substrate preincubated for 30 mins followed by substrate addition and measured after 4 hrs by LC-MS analysis. It is filed as cell-based.

Chain of 3-beta-hydroxysteroid-Delta(8),Delta(7)-isomerase (Q15125 whole entry): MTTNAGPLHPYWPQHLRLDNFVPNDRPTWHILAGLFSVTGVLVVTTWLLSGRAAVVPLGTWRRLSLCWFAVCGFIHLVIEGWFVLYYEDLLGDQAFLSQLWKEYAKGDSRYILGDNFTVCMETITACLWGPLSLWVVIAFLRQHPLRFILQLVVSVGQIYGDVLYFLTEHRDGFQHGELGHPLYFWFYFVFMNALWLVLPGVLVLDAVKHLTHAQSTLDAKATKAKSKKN

`O=S(=O)(c1ccc(C(F)(F)F)nc1C1CC1)N1CC2(CN(C3CCOCC3)C2)C1` returned an IC50 below 100 nM.

In turn, `Cn1nc(C(F)(F)F)cc1S(=O)(=O)N1CC2(CN(CC3CC4(COC4)C3)C2)C1` registered a half-maximal inhibitory concentration (IC50) below 100 nM.

Molecule `CC(C)c1cc(S(=O)(=O)N2CC3(CN(C4CCOCC4)C3)C2)n(C)n1` showed a 50% inhibitory concentration (IC50) below 100 nM.

On to `Cn1nc(C(F)(F)F)cc1S(=O)(=O)N1CCC2(CCN(C3CCOCC3)C2)CC1`, for which the 50% inhibitory concentration (IC50) was below 100 nM.

Take `O=S(=O)(c1cc(F)cc(F)c1)N1CCOC2(CCN(C3CCOCC3)C2)C1` (stereo unspecified): the IC50 is below 100 nM.

For `Cc1nc(C(F)(F)F)ccc1S(=O)(=O)N1CC2(CN(C(C)C3CCCO3)C2)C1` (stereo unspecified), the IC50 is below 100 nM.

The IC50 is the concentration needed to halve the response being measured. Read a low IC50 as greater potency.
